Laboratory results published in ChEMBL document CHEMBL4304757, “Synthetic heterocyclic candidates as promising α-glucosidase inhibitors: An overview” (Eur J Med Chem, 2019).
pIC50: −log10 of the molar value.

target: T1, Alpha glucosidase (Homo sapiens, UniProt O43451+P10253+P14410+Q2M2H8); experiment: Inhibition of alpha-glucosidase (unknown origin) using p-nitrophenyl-alpha-d-glucopyranoside as substrate preincubated for 15 mins followed by substrate addition measured after 30 mins by spectrophotometric analysis; type: protein assay

| pIC50 | IC50 [µM] | SMILES |
| --- | --- | --- |
| 4.42 to 4.72 | – | Clc1ccc(CSc2nc(-c3ccc(Br)cc3)cc(-c3ccc(Br)cc3)n2)cc1 |
| 4.42 to 4.72 | – | Fc1cccc(CSc2nc(-c3ccc(Br)cc3)cc(-c3ccc(Br)cc3)n2)c1 |
| 4.21 to 4.70 | – | Clc1ccc2sc(SCc3cn(Cc4ccccc4Cl)nn3)nc2c1 |
| 4.42 to 4.72 | – | Cc1ccc(-c2cc(-c3cccc(Br)c3)nc(SCc3cccc(F)c3)n2)cc1 |
| – | 2.5 | O=C(COc1ccc2ccc(=O)oc2c1)N/N=C1\C(=O)N(Cc2ccccc2F)c2ccc(Cl)cc21 |
| 4.21 to 4.70 | – | Clc1ccc2sc(SCc3cn(Cc4ccc(Br)cc4)nn3)nc2c1 |
| 4.21 to 4.70 | – | Fc1ccccc1Cn1cc(CSc2nc3cc(Cl)ccc3s2)nn1 |
| 4.42 to 4.72 | – | Clc1ccccc1CSc1nc(-c2ccc(Br)cc2)cc(-c2cccc(Br)c2)n1 |
| 4.42 to 4.72 | – | Cc1ccc(-c2cc(-c3cccc(Br)c3)nc(SCc3ccccc3Cl)n2)cc1 |
| 4.21 to 4.70 | – | Clc1ccc2sc(SCc3cn(Cc4ccccc4Br)nn3)nc2c1 |
| 4.21 to 4.70 | – | Clc1ccc2sc(SCc3cn(Cc4ccccc4)nn3)nc2c1 |
| 4.21 to 4.70 | – | Clc1cc(Cl)cc(Cn2cc(CSc3nc4ccccc4s3)nn2)c1 |
| – | 20 | CC(C)(C)c1ccc(Cn2cc(CSc3nc4cc(Cl)ccc4s3)nn2)cc1 |
| 4.21 to 4.70 | – | Clc1ccc(Cn2cc(CSc3nc4cc(Cl)ccc4s3)nn2)cc1 |
| 4.42 to 4.72 | – | Cc1ccc(-c2cc(-c3cccc(Br)c3)nc(SCc3ccc(F)cc3)n2)cc1 |
| 4.21 to 4.70 | – | Fc1cccc(Cn2cc(CSc3nc4cc(Cl)ccc4s3)nn2)c1 |
| 4.42 to 4.72 | – | Fc1ccc(CSc2nc(-c3ccc(Br)cc3)cc(-c3ccc(Br)cc3)n2)cc1 |
| 4.42 to 4.72 | – | Cc1ccc(-c2cc(-c3ccc(Br)cc3)nc(SCc3ccc(Cl)cc3)n2)cc1 |
| 4.21 to 4.70 | – | Clc1ccc(Cn2cc(CSc3nc4ccccc4s3)nn2)cc1 |
| 4.42 to 4.72 | – | Clc1ccccc1CSc1nc(-c2ccc(Br)cc2)cc(-c2ccc(Br)cc2)n1 |
| 4.21 to 4.70 | – | Clc1cc(Cl)cc(Cn2cc(CSc3nc4cc(Cl)ccc4s3)nn2)c1 |
| 4.21 to 4.70 | – | Brc1ccccc1Cn1cc(CSc2nc3ccccc3s2)nn1 |
| 4.21 to 4.70 | – | Brc1ccc(Cn2cc(CSc3nc4ccccc4s3)nn2)cc1 |
| 4.21 to 4.70 | – | Fc1ccc(Cn2cc(CSc3nc4cc(Cl)ccc4s3)nn2)cc1 |
| 4.21 to 4.70 | – | Fc1cccc(Cn2cc(CSc3nc4ccccc4s3)nn2)c1 |
| 4.42 to 4.72 | – | Fc1cccc(CSc2nc(-c3ccc(Br)cc3)cc(-c3cccc(Br)c3)n2)c1 |
| 4.42 to 4.72 | – | Cc1ccc(-c2cc(-c3ccc(Br)cc3)nc(SCc3ccccc3Br)n2)cc1 |
| 4.42 to 4.72 | – | Fc1ccccc1CSc1nc(-c2ccc(Br)cc2)cc(-c2ccc(Br)cc2)n1 |
| 4.21 to 4.70 | – | CC(C)(C)c1ccc(Cn2cc(CSc3nc4ccccc4s3)nn2)cc1 |

target: T1, Alpha glucosidase; experiment: Inhibition of alpha-glucosidase (unknown origin) using p-nitrophenyl-alpha-d-glucopyranoside as substrate preincubated for 5 mins followed by substrate addition measured after 5 mins; type: protein assay

| pIC50 | IC50 [µM] | SMILES |
| --- | --- | --- |
| 4.42 to 5.64 | – | Nc1nnc(-c2ccc(Cl)cc2Cl)s1 |
| 4.42 to 5.64 | – | Nc1nnc(-c2ccc(Cl)c(OCc3ccccc3)c2)s1 |
| 4.44 to 5.96 | – | O=C(N/N=C/c1ccc([N+](=O)[O-])cc1)c1cc2ccccc2oc1=O |
| 4.44 to 5.96 | – | COc1ccc(/C=N/NC(=O)c2cc3ccccc3oc2=O)c(O)c1 |
| 4.44 to 5.96 | – | O=C(N/N=C/c1ccc(O)cc1O)c1cc2ccccc2oc1=O |
| 4.44 to 5.96 | – | O=C(N/N=C/c1ccccc1[N+](=O)[O-])c1cc2ccccc2oc1=O |
| 4.44 to 5.96 | – | COc1ccc(/C=N/NC(=O)c2cc3ccccc3oc2=O)cc1 |
| 4.60 to 5.64 | – | O=[N+]([O-])c1ccc(/C=N/c2nnc(-c3ccc(Cl)cc3)s2)cc1 |
| 4.60 to 5.64 | – | COc1cc(-c2nnc(/N=C/c3ccc(O)cc3)s2)ccc1OCc1ccccc1 |
| 4.60 to 5.64 | – | O=[N+]([O-])c1ccccc1/C=N/c1nnc(-c2ccc(Cl)cc2)s1 |
| – | 2.3 | Nc1nnc(-c2ccc(O)cc2)s1 |
| 4.42 to 5.64 | – | Nc1nnc(-c2ccccc2[N+](=O)[O-])s1 |
| 4.44 to 5.96 | – | Cc1cccc(/C=N/NC(=O)c2cc3ccccc3oc2=O)c1 |
| 4.42 to 5.64 | – | COc1cccc(-c2nnc(N)s2)c1OC |
| 4.44 to 5.96 | – | O=C(N/N=C/c1ccccc1)c1cc2ccccc2oc1=O |
| 4.42 to 5.64 | – | Nc1nnc(-c2c3ccccc3cc3ccccc23)s1 |
| 4.44 to 5.96 | – | COc1ccc(O)c(/C=N/NC(=O)c2cc3ccccc3oc2=O)c1 |
| 4.60 to 5.64 | – | COc1ccc(Br)cc1/C=N/c1nnc(-c2ccc(Cl)cc2)s1 |
| 4.60 to 5.64 | – | Clc1ccc(-c2nnc(/N=C/c3ccc(Cl)cc3Cl)s2)cc1 |
| 4.60 to 5.64 | – | COc1ccc(Br)cc1/C=N/c1nnc(-c2cccc([N+](=O)[O-])c2)s1 |

| pIC50 | IC50 [µM] | SMILES |
| --- | --- | --- |
| 4.44 to 5.96 | – | Cc1ccc(/C=N/NC(=O)c2cc3ccccc3oc2=O)cc1 |
| 4.60 to 5.64 | – | Clc1ccc(-c2nnc(/N=C/c3ccc(OCc4ccccc4)cc3)s2)cc1 |
| 4.44 to 5.96 | – | O=C(N/N=C/c1ccc(F)cc1)c1cc2ccccc2oc1=O |
| 4.42 to 5.64 | – | Nc1nnc(-c2ccc(Cl)cc2)s1 |
| 4.42 to 5.64 | – | COc1ccc(Br)cc1-c1nnc(N)s1 |
| – | 2.3 | Oc1ccc(/C=N/c2nnc(-c3ccc(Cl)cc3)s2)cc1 |
| 4.60 to 5.64 | – | O=[N+]([O-])c1cccc(-c2nnc(/N=C/c3ccc(Cl)cc3Cl)s2)c1 |
| 4.44 to 5.96 | – | O=C(N/N=C/c1ccccc1F)c1cc2ccccc2oc1=O |
| 4.42 to 5.64 | – | CN(C)c1ccc(-c2nnc(N)s2)cc1 |
| 4.44 to 5.96 | – | O=C(N/N=C/c1ccncc1)c1cc2ccccc2oc1=O |
| 4.44 to 5.96 | – | O=C(N/N=C/c1cccc(F)c1)c1cc2ccccc2oc1=O |
| 4.42 to 5.64 | – | Nc1nnc(-c2ccc([N+](=O)[O-])cc2)s1 |
| 4.44 to 5.96 | – | Cc1ccccc1/C=N/NC(=O)c1cc2ccccc2oc1=O |
| – | 1.1 | O=C(N/N=C/c1cccc(O)c1O)c1cc2ccccc2oc1=O |
| 4.42 to 5.64 | – | Nc1nnc(-c2cccc([N+](=O)[O-])c2)s1 |
| 4.42 to 5.64 | – | Nc1nnc(-c2cc3ccccc3cc2O)s1 |
| 4.44 to 5.96 | – | O=C(N/N=C/c1ccccc1O)c1cc2ccccc2oc1=O |
| 4.42 to 5.64 | – | Nc1nnc(-c2ccc(OCc3ccccc3)cc2)s1 |
| 4.44 to 5.96 | – | O=C(N/N=C/c1ccccn1)c1cc2ccccc2oc1=O |

target: not listed separately; experiment: Inhibition of yeast alpha-glucosidase; design: species or system Saccharomyces cerevisiae

| pIC50 | SMILES |
| --- | --- |
| 4.28 to 6.00 | Cc1cc2c(c(=O)[nH]1)C(=O)O/C2=C\c1ccc(Br)cc1 |
| 4.06 to 5.92 | O=c1cc(-c2cccc(OCc3ccc([N+](=O)[O-])cc3)c2)oc2ccccc12 |
| 4.06 to 5.92 | O=c1cc(-c2cccc(OCc3ccccc3)c2)oc2ccccc12 |
| 4.07 to 5.08 | COc1ccc(-c2csc(/C=C3\OC(=O)c4c3cc(C)[nH]c4=O)c2)cn1 |
| 5.08 | Cc1cc2c(c(=O)[nH]1)C(=O)O/C2=C\c1cc(-c2ccccc2)cs1 |
| 6.62 | Cc1cc2c(c(=O)[nH]1)C(=O)O/C2=C\c1cc(Br)cs1 |
| 4.28 to 6.00 | Cc1cc2c(c(=O)[nH]1)C(=O)O/C2=C\c1ccccc1C(F)(F)F |
| 6.00 | Cc1cc2c(c(=O)[nH]1)C(=O)O/C2=C\c1ccc(F)c(F)c1 |
| 4.28 to 6.00 | Cc1cc2c(c(=O)[nH]1)C(=O)O/C2=C\c1ccc(O)c(O)c1 |
| 4.06 to 5.92 | N#Cc1ccc(COc2cccc(-c3cc(=O)c4ccccc4o3)c2)cc1 |
| 6.05 | Cc1cc2c(c(=O)[nH]1)C(=O)O/C2=C\c1nccn1C |
| 5.92 | O=c1cc(-c2cccc(OCc3cc(C(F)(F)F)ccc3C(F)(F)F)c2)oc2ccccc12 |
| 4.06 to 5.92 | COc1ccc(COc2cccc(-c3cc(=O)c4ccccc4o3)c2)cc1 |
| 4.06 to 5.92 | CC(C)(C)c1ccc(COc2cccc(-c3cc(=O)c4ccccc4o3)c2)cc1 |
| 4.28 to 6.00 | Cc1cc2c(c(=O)[nH]1)C(=O)O/C2=C\c1ccccc1 |
| 5.00 to 6.62 | Cc1cc2c(c(=O)[nH]1)C(=O)O/C2=C\c1cccs1 |
| 4.07 to 5.08 | Cc1cc2c(c(=O)[nH]1)C(=O)O/C2=C\c1cc(-c2ccnc(N3CCN(C(=O)OC(C)(C)C)CC3)c2)cs1 |
| 4.06 to 5.92 | Cc1cccc(COc2cccc(-c3cc(=O)c4ccccc4o3)c2)c1 |
| 4.06 to 5.92 | N#Cc1cccc(COc2cccc(-c3cc(=O)c4ccccc4o3)c2)c1 |
| 5.47 | O=c1cc(-c2cccc(OCc3cccc(F)c3F)c2)oc2ccccc12 |
| 4.06 to 5.92 | O=c1cc(-c2cccc(OCc3cccc(SC(F)(F)F)c3)c2)oc2ccccc12 |
| 4.28 to 6.00 | Cc1cc2c(c(=O)[nH]1)C(=O)O/C2=C\c1cccc(Br)c1 |

target: T1, Alpha glucosidase; experiment: Inhibition of alpha-glucosidase (unknown origin) using p-nitro phenyl glucopyranoside as substrate preincubated for 5 mins followed by substrate addition measured after 30 mins; type: protein assay

| pIC50 | SMILES |
| --- | --- |
| 6.12 to 7.15 | CN(C)c1ccc(C(Nc2ccc(-c3ccc(NC(c4ccc(N(C)C)cc4)n4nc(-c5cc(=O)oc6ccccc56)oc4=S)cc3)cc2)n2nc(-c3cc4ccccc4oc3=O)oc2=S)cc1 (stereo unspecified) |
| 6.12 to 7.15 | O=c1cc(-c2nn(C(Nc3ccc(NC(c4ccc(Cl)cc4)n4nc(-c5cc6ccccc6oc5=O)oc4=S)cc3)c3ccc(Cl)cc3)c(=S)o2)c2ccccc2o1 (stereo unspecified) |
| 6.12 to 7.15 | CN(C)c1ccc(C(Nc2ccc(NC(c3ccc(N(C)C)cc3)n3nc(-c4cc(=O)oc5ccccc45)oc3=S)cc2)n2nc(-c3cc4ccccc4oc3=O)oc2=S)cc1 (stereo unspecified) |
| 6.12 to 7.15 | COc1cccc(C(Nc2ccc(-c3ccc(NC(c4cccc(OC)c4)n4nc(-c5cc(=O)oc6ccccc56)oc4=S)cc3)cc2)n2nc(-c3cc4ccccc4oc3=O)oc2=S)c1 (stereo unspecified) |
| 6.12 to 7.15 | O=c1cc(-c2nn(C(Nc3ccc(-c4ccc(NC(c5ccc(Cl)cc5)n5nc(-c6cc7ccccc7oc6=O)oc5=S)cc4)cc3)c3ccc(Cl)cc3)c(=S)o2)c2ccccc2o1 (stereo unspecified) |
| 6.12 to 7.15 | O=c1cc(-c2nn(C(Nc3ccc(-c4ccc(NC(c5cccc(Cl)c5)n5nc(-c6cc7ccccc7oc6=O)oc5=S)cc4)cc3)c3cccc(Cl)c3)c(=S)o2)c2ccccc2o1 (stereo unspecified) |
| 6.12 to 7.15 | COc1cccc(C(Nc2ccc(NC(c3cccc(OC)c3)n3nc(-c4cc(=O)oc5ccccc45)oc3=S)cc2)n2nc(-c3cc4ccccc4oc3=O)oc2=S)c1 (stereo unspecified) |
| 6.12 to 7.15 | Cc1ccc(C(Nc2ccc(NC(c3ccc(C)cc3)n3nc(-c4cc(=O)oc5ccccc45)oc3=S)cc2)n2nc(-c3cc4ccccc4oc3=O)oc2=S)cc1 (stereo unspecified) |
| 6.12 to 7.15 | O=c1cc(-c2nn(C(Nc3ccc(NC(c4ccc(Cl)cc4Cl)n4nc(-c5cc6ccccc6oc5=O)oc4=S)cc3)c3ccc(Cl)cc3Cl)c(=S)o2)c2ccccc2o1 (stereo unspecified) |
| 6.12 to 7.15 | O=c1cc(-c2nn(C(Nc3ccc(NC(c4cccc(Cl)c4)n4nc(-c5cc6ccccc6oc5=O)oc4=S)cc3)c3cccc(Cl)c3)c(=S)o2)c2ccccc2o1 (stereo unspecified) |
| 6.12 to 7.15 | Cc1ccc(C(Nc2ccc(Oc3ccc(NC(c4ccc(C)cc4)n4nc(-c5cc6ccccc6oc5=O)oc4=S)cc3)cc2)n2nc(-c3cc4ccccc4oc3=O)oc2=S)cc1 (stereo unspecified) |
